Measurements as given in PMC5218480 (PLoS ONE, 2017).

System: MV-4-11 cells
Assay: Gene expression microarray analysis (Affymetrix PrimeView) and GSEA
Format: cell-based, human
Parameters: RFU PODN (11730768_x_at) / Fold change /veh PODN (11730768_x_at) / RFU LINC00158 (11744669_a_at) / Fold change /veh LINC00158 (11744669_a_at) / RFU DUSP10 (11751237_a_at) / Fold change /veh DUSP10 (11751237_a_at) / RFU ID3 (11757404_x_at) / Fold change /veh ID3 (11757404_x_at) / RFU PLEKHG5 (11737974_s_at) / Fold change /veh PLEKHG5 (11737974_s_at) / RFU LRRC4B (11730491_at) / Fold change /veh LRRC4B (11730491_at) / RFU GIMAP4 (11747438_a_at) / Fold change /veh GIMAP4 (11747438_a_at) / RFU KRT8 (11758183_x_at) / Fold change /veh KRT8 (11758183_x_at) / RFU CNN1 (11734310_a_at) / Fold change /veh CNN1 (11734310_a_at) / RFU VPS37D (11726825_at) / Fold change /veh VPS37D (11726825_at) / RFU C10orf10 (11716522_x_at) / Fold change /veh C10orf10 (11716522_x_at) / RFU KIR2DL2 /// KIR2DL4 /// KIR2DL5A /// KIR2DL5B /// KIR2DS1 /// KIR2DS2 /// KIR2DS3 /// KIR2DS4 /// KIR3DL3 /// KIR3DL3 /// KIR3DS1 (11738374_at) / Fold change /veh KIR2DL2 /// KIR2DL4 /// KIR2DL5A /// KIR2DL5B /// KIR2DS1 /// KIR2DS2 /// KIR2DS3 /// KIR2DS4 /// KIR3DL3 /// KIR3DL3 /// KIR3DS1 (11738374_at) / RFU C1QL1 (11718748_at) / Fold change /veh C1QL1 (11718748_at) / RFU TMPRSS4 (11747572_a_at) / Fold change /veh TMPRSS4 (11747572_a_at) / RFU HAMP (11756126_x_at) / Fold change /veh HAMP (11756126_x_at) / RFU RNFT2 (11725882_a_at) / Fold change /veh RNFT2 (11725882_a_at) / RFU NR4A2 (11747474_a_at) / Fold change /veh NR4A2 (11747474_a_at) / RFU ABCC12 (11746883_a_at) / Fold change /veh ABCC12 (11746883_a_at) / RFU TMEM136 (11760407_x_at) / Fold change /veh TMEM136 (11760407_x_at) / RFU CLDN22 /// WWC2 (11732394_at) / Fold change /veh CLDN22 /// WWC2 (11732394_at) / RFU HLA-DPB1 (11760878_x_at) / Fold change /veh HLA-DPB1 (11760878_x_at) / RFU SPINT1 (11716480_a_at) / Fold change /veh SPINT1 (11716480_a_at) / RFU GAP43 (11754022_s_at) / Fold change /veh GAP43 (11754022_s_at) / RFU A4GNT (11735810_at) / Fold change /veh A4GNT (11735810_at) / RFU PRB3 (11715151_x_at) / Fold change /veh PRB3 (11715151_x_at) / RFU TUBB4B (11761932_at) / Fold change /veh TUBB4B (11761932_at) / RFU CAPN14 (11732068_a_at) / Fold change /veh CAPN14 (11732068_a_at) / RFU TMCC2 (11721928_a_at) / Fold change /veh TMCC2 (11721928_a_at) / RFU IRGQ (11745062_a_at) / Fold change /veh IRGQ (11745062_a_at) / RFU FAM174B (11720279_a_at) / Fold change /veh FAM174B (11720279_a_at) / RFU TMPRSS4 (11748680_a_at) / Fold change /veh TMPRSS4 (11748680_a_at) / RFU FAM212B (11763350_a_at) / Fold change /veh FAM212B (11763350_a_at) / RFU PLEKHG5 (11743358_a_at) / Fold change /veh PLEKHG5 (11743358_a_at) / RFU ZSCAN30 (11745921_a_at) / Fold change /veh ZSCAN30 (11745921_a_at) / RFU CMKLR1 (11741424_a_at) / Fold change /veh CMKLR1 (11741424_a_at) / RFU LOC101060620 /// MAPK8IP1 (11723275_at) / Fold change /veh LOC101060620 /// MAPK8IP1 (11723275_at) / RFU SPTSSB (11747773_x_at) / Fold change /veh SPTSSB (11747773_x_at) / RFU PRSS12 (11739890_at) / Fold change /veh PRSS12 (11739890_at) / RFU BIN1 (11741810_x_at) / Fold change /veh BIN1 (11741810_x_at) / RFU WNT11 (11732464_a_at) / Fold change /veh WNT11 (11732464_a_at) / RFU C10orf10 (11716521_a_at) / Fold change /veh C10orf10 (11716521_a_at) / RFU C5orf56 (11738089_at) / Fold change /veh C5orf56 (11738089_at) / RFU CYB561 (11721691_x_at) / Fold change /veh CYB561 (11721691_x_at) / RFU ANKRD19P (11752326_a_at) / Fold change /veh ANKRD19P (11752326_a_at) / RFU OR2T12 /// OR2T33 /// OR2T8 (11738714_s_at) / Fold change /veh OR2T12 /// OR2T33 /// OR2T8 (11738714_s_at) / RFU VCAN (11748164_a_at) / Fold change /veh VCAN (11748164_a_at) / RFU JSRP1 (11732532_at) / Fold change /veh JSRP1 (11732532_at) / RFU KRTAP10-11 (11738290_x_at) / Fold change /veh KRTAP10-11 (11738290_x_at) / RFU MYO3A (11730013_a_at) / Fold change /veh MYO3A (11730013_a_at) / RFU EBF3 (11725865_a_at) / Fold change /veh EBF3 (11725865_a_at) / RFU CAMK2N1 (11719241_x_at) / Fold change /veh CAMK2N1 (11719241_x_at) / RFU C5orf56 (11738088_a_at) / Fold change /veh C5orf56 (11738088_a_at) / RFU OLFML3 (11715873_a_at) / Fold change /veh OLFML3 (11715873_a_at) / RFU LOC100653217 /// NTM (11731650_a_at) / Fold change /veh LOC100653217 /// NTM (11731650_a_at) / RFU MAPK11 (11762145_a_at) / Fold change /veh MAPK11 (11762145_a_at) / RFU FIZ1 (11724087_x_at) / Fold change /veh FIZ1 (11724087_x_at) / RFU OASL (11726364_x_at) / Fold change /veh OASL (11726364_x_at) / RFU SOX15 (11748057_x_at) / Fold change /veh SOX15 (11748057_x_at) / RFU CD79A (11719716_a_at) / Fold change /veh CD79A (11719716_a_at) / RFU HIST1H1D (11736915_at) / Fold change /veh HIST1H1D (11736915_at) / RFU CASKIN2 (11723855_a_at) / Fold change /veh CASKIN2 (11723855_a_at) / RFU LOC730098 (11760151_x_at) / Fold change /veh LOC730098 (11760151_x_at) / RFU OR4N2 (11742367_at) / Fold change /veh OR4N2 (11742367_at) / RFU PRRT2 (11749266_a_at) / Fold change /veh PRRT2 (11749266_a_at) / RFU SNX32 (11753110_a_at) / Fold change /veh SNX32 (11753110_a_at) / RFU CDHR5 (11726645_a_at) / Fold change /veh CDHR5 (11726645_a_at) / RFU RCAN1 (11760418_a_at) / Fold change /veh RCAN1 (11760418_a_at) / RFU FAM167A (11723789_a_at) / Fold change /veh FAM167A (11723789_a_at) / RFU FAM26E (11764081_at) / Fold change /veh FAM26E (11764081_at) / RFU ISYNA1 (11749810_s_at) / Fold change /veh ISYNA1 (11749810_s_at) / RFU ACY1 (11761880_at) / Fold change /veh ACY1 (11761880_at) / RFU 11764098_at / Fold change /veh 11764098_at / RFU SAMD14 (11745864_x_at) / Fold change /veh SAMD14 (11745864_x_at) / RFU NPB (11741838_a_at) / Fold change /veh NPB (11741838_a_at) / RFU TMPRSS6 (11731388_a_at) / Fold change /veh TMPRSS6 (11731388_a_at) / RFU KRTAP10-2 (11738614_at) / Fold change /veh KRTAP10-2 (11738614_at) / RFU ARHGAP8 /// PRR5-ARHGAP8 (11727945_x_at) / Fold change /veh ARHGAP8 /// PRR5-ARHGAP8 (11727945_x_at) / RFU KRTAP5-7 /// NADSYN1 (11734609_at) / Fold change /veh KRTAP5-7 /// NADSYN1 (11734609_at) / RFU RASL12 (11751679_a_at) / Fold change /veh RASL12 (11751679_a_at) / RFU CDKN2B (11736163_a_at) / Fold change /veh CDKN2B (11736163_a_at) / RFU PRF1 (11729649_at) / Fold change /veh PRF1 (11729649_at) / RFU, ZNF638 /// ZNF638-IT1 / Fold change vs veh, ZNF638 /// ZNF638-IT1 / RFU, PANK3 / Fold change vs veh, PANK3 / RFU, SH3YL1 / Fold change vs veh, SH3YL1 / RFU, ZEB2 / Fold change vs veh, ZEB2 / RFU, NRIP1 / Fold change vs veh, NRIP1 / RFU, PTTG1IP / Fold change vs veh, PTTG1IP / RFU, CAPN2 / Fold change vs veh, CAPN2 / RFU, MED14 / Fold change vs veh, MED14 / RFU, SNORA58 / Fold change vs veh, SNORA58 / RFU, C1orf63 / Fold change vs veh, C1orf63 / RFU, LRRFIP1 / Fold change vs veh, LRRFIP1 / RFU, NDUFAF7 / Fold change vs veh, NDUFAF7 / RFU, SLC12A2 / Fold change vs veh, SLC12A2 / RFU, IBTK / Fold change vs veh, IBTK / RFU, ESF1 / Fold change vs veh, ESF1 / Fold change vs veh, TMEM50B / RFU, TAOK1 / Fold change vs veh, TAOK1 / RFU, ACBD3 / Fold change vs veh, ACBD3 / RFU, TMA16 / Fold change vs veh, TMA16 / RFU, RWDD3 / Fold change vs veh, RWDD3 / RFU, BCAT1 / Fold change vs veh, BCAT1 / RFU, EDEM3 / Fold change vs veh, EDEM3 / RFU, TMEM33 / Fold change vs veh, TMEM33 / RFU, WDR75 / Fold change vs veh, WDR75 / RFU, AHCTF1 / Fold change vs veh, AHCTF1 / RFU, TFRC / Fold change vs veh, TFRC / RFU, ZDHHC17 / Fold change vs veh, ZDHHC17 / RFU, NOM1 / Fold change vs veh, NOM1 / RFU, ARL8B / Fold change vs veh, ARL8B / RFU, ZBTB11 / Fold change vs veh, ZBTB11 / RFU, TAMM41 / Fold change vs veh, TAMM41 / RFU, KIAA1704 /// LOC100996395 / Fold change vs veh, KIAA1704 /// LOC100996395 / RFU, ING1 / Fold change vs veh, ING1 / RFU, TRMT61B / Fold change vs veh, TRMT61B / RFU, FUBP3 / Fold change vs veh, FUBP3 / RFU, TP53 / Fold change vs veh, TP53 / RFU, TNKS2 / Fold change vs veh, TNKS2 / RFU, ZFP14 / Fold change vs veh, ZFP14 / RFU, ACTR2 / Fold change vs veh, ACTR2 / RFU, PPP3R1 / Fold change vs veh, PPP3R1 / RFU, PIK3R1 / Fold change vs veh, PIK3R1 / RFU, HNRNPA1 / Fold change vs veh, HNRNPA1 / RFU, RNF170 / Fold change vs veh, RNF170 / RFU, ZNF28 / Fold change vs veh, ZNF28 / RFU, RNGTT / Fold change vs veh, RNGTT / RFU, OGT / Fold change vs veh, OGT / RFU, BRD1 / Fold change vs veh, BRD1 / RFU, MARS / Fold change vs veh, MARS / RFU, ZNF655 / Fold change vs veh, ZNF655 / RFU, FAHD1 / Fold change vs veh, FAHD1 / RFU, BDP1 / Fold change vs veh, BDP1 / RFU, LRRCC1 / Fold change vs veh, LRRCC1 / RFU, ARID1A / Fold change vs veh, ARID1A / RFU, ZNF146 / Fold change vs veh, ZNF146 / RFU, ZNF330 / Fold change vs veh, ZNF330 / RFU, GPN3 / Fold change vs veh, GPN3 / RFU, C9orf123 / Fold change vs veh, C9orf123 / RFU, N4BP2L2 / Fold change vs veh, N4BP2L2 / RFU, ARFIP1 / Fold change vs veh, ARFIP1 / RFU, FAM179B / Fold change vs veh, FAM179B / RFU, BCL10 / Fold change vs veh, BCL10 / RFU, UHRF1BP1L / Fold change vs veh, UHRF1BP1L / RFU, BET1 / Fold change vs veh, BET1 / RFU, CNOT2 / Fold change vs veh, CNOT2 / RFU, ZNF268 / Fold change vs veh, ZNF268 / Fold change vs veh, ZNF507 / RFU, DGCR2 / Fold change vs veh, DGCR2 / RFU, WDSUB1 / Fold change vs veh, WDSUB1 / Fold change vs veh, HSP90B1 /// MIR3652 / RFU, ADSS / Fold change vs veh, ADSS / RFU, GK / Fold change vs veh, GK / RFU, ZNF148 / Fold change vs veh, ZNF148 / RFU, TAF9 / Fold change vs veh, TAF9 / RFU, SLC1A5 / Fold change vs veh, SLC1A5 / RFU, SLMO2 / Fold change vs veh, SLMO2 / RFU, ABCC4 / Fold change vs veh, ABCC4 / RFU, LOC101060439 /// RAP1B / Fold change vs veh, LOC101060439 /// RAP1B / RFU, RFX7 / Fold change vs veh, RFX7 / RFU, GTPBP10 / Fold change vs veh, GTPBP10 / RFU, CNEP1R1 / Fold change vs veh, CNEP1R1 / RFU, BIVM-ERCC5 /// ERCC5 / Fold change vs veh, BIVM-ERCC5 /// ERCC5 / RFU, ILF3 / Fold change vs veh, ILF3 / RFU 11762660_at / Fold change /veh 11762660_at / RFU VCAN (11757783_s_at) / Fold change /veh VCAN (11757783_s_at) / RFU DDX43 (11728927_at) / Fold change /veh DDX43 (11728927_at) / RFU KRT8 (11758188_x_at) / Fold change /veh KRT8 (11758188_x_at) / RFU NKD1 (11759106_at) / Fold change /veh NKD1 (11759106_at) / RFU SRD5A1 (11742802_a_at) / Fold change /veh SRD5A1 (11742802_a_at) / RFU TPSAB1 /// TPSB2 (11721975_s_at) / Fold change /veh TPSAB1 /// TPSB2 (11721975_s_at) / RFU GSTM3 (11746129_a_at) / Fold change /veh GSTM3 (11746129_a_at) / RFU IL23R (11737362_x_at) / Fold change /veh IL23R (11737362_x_at) / RFU TMEM51 (11727254_a_at) / Fold change /veh TMEM51 (11727254_a_at) / RFU PIWIL2 (11732686_x_at) / Fold change /veh PIWIL2 (11732686_x_at) / RFU ORM1 (11744905_x_at) / Fold change /veh ORM1 (11744905_x_at) / RFU CCDC152 (11743942_at) / Fold change /veh CCDC152 (11743942_at) / RFU ECM1 (11717891_a_at) / Fold change /veh ECM1 (11717891_a_at) / RFU IL23R (11748794_a_at) / Fold change /veh IL23R (11748794_a_at) / RFU TNFAIP8L3 (11732012_x_at) / Fold change /veh TNFAIP8L3 (11732012_x_at) / RFU MBOAT4 (11741988_at) / Fold change /veh MBOAT4 (11741988_at) / RFU 11764193_at / Fold change /veh 11764193_at / RFU TMEM53 (11763286_at) / Fold change /veh TMEM53 (11763286_at) / RFU MAGEB2 (11727129_at) / Fold change /veh MAGEB2 (11727129_at) / RFU TMEM200A (11744735_a_at) / Fold change /veh TMEM200A (11744735_a_at) / RFU CCDC152 (11751479_a_at) / Fold change /veh CCDC152 (11751479_a_at) / RFU FAM211A (11726209_a_at) / Fold change /veh FAM211A (11726209_a_at) / RFU RGS16 (11746705_a_at) / Fold change /veh RGS16 (11746705_a_at) / RFU VCAN (11755009_s_at) / Fold change /veh VCAN (11755009_s_at) / RFU RHOB (11743442_s_at) / Fold change /veh RHOB (11743442_s_at) / RFU RGS16 (11720943_a_at) / Fold change /veh RGS16 (11720943_a_at) / RFU RGS16 (11720944_at) / Fold change /veh RGS16 (11720944_at) / RFU, VPS4B / Fold change vs veh, VPS4B / RFU, CREB1 / Fold change vs veh, CREB1 / RFU, DNAJC13 / Fold change vs veh, DNAJC13 / RFU, GNAQ / Fold change vs veh, GNAQ / RFU, CDK5R1 / Fold change vs veh, CDK5R1 / RFU, ZRANB3 / Fold change vs veh, ZRANB3 / RFU, CUL4A / Fold change vs veh, CUL4A / RFU, CCNY / Fold change vs veh, CCNY / RFU, UFL1 / Fold change vs veh, UFL1 / RFU, COG3 / Fold change vs veh, COG3 / RFU, DIAPH2 / Fold change vs veh, DIAPH2 / RFU, SKA2 / Fold change vs veh, SKA2 / RFU, AFF3 / Fold change vs veh, AFF3 / RFU, LMF1 / Fold change vs veh, LMF1 / RFU, IPO11 / Fold change vs veh, IPO11 / RFU, DFFB / Fold change vs veh, DFFB / RFU, FOXP1 / Fold change vs veh, FOXP1 / RFU, CARD8 / Fold change vs veh, CARD8 / RFU, STRN3 / Fold change vs veh, STRN3 / RFU, ADK / Fold change vs veh, ADK / RFU, RASSF2 / Fold change vs veh, RASSF2 / RFU, WIPF1 / Fold change vs veh, WIPF1 / RFU, LARP1B / Fold change vs veh, LARP1B / RFU, RASA1 / Fold change vs veh, RASA1 / RFU, RB1 / Fold change vs veh, RB1 / RFU, PPFIA1 / Fold change vs veh, PPFIA1 / RFU, MAT2A / Fold change vs veh, MAT2A / RFU, CCT5 / Fold change vs veh, CCT5 / RFU, WDR92 / Fold change vs veh, WDR92 / RFU, CUX1 / Fold change vs veh, CUX1 / RFU, TTC7A / Fold change vs veh, TTC7A / RFU, TMEM135 / Fold change vs veh, TMEM135 / RFU, DEPTOR / Fold change vs veh, DEPTOR / RFU, CPM / Fold change vs veh, CPM / RFU, DNAJB6 / Fold change vs veh, DNAJB6 / RFU, CACNA2D3 / Fold change vs veh, CACNA2D3 / RFU, DTX4 / Fold change vs veh, DTX4 / RFU, TFCP2 / Fold change vs veh, TFCP2 / RFU, GMCL1 /// GMCL1P1 / Fold change vs veh, GMCL1 /// GMCL1P1 / RFU, AEBP2 / Fold change vs veh, AEBP2 / RFU, SNHG1 /// SNORD22 /// SNORD25 /// SNORD26 /// SNORD27 /// SNORD28 /// SNORD29 /// SNORD31 / Fold change vs veh, SNHG1 /// SNORD22 /// SNORD25 /// SNORD26 /// SNORD27 /// SNORD28 /// SNORD29 /// SNORD31 / Fold change (Aza/veh), C12orf56 (ProbeSet 11735607_a_at) / Fold change (ACY-1035/veh), C12orf56 (ProbeSet 11735607_a_at) / Fold change (Aza/veh), FGFR1OP (ProbeSet 11751329_s_at) / Fold change (ACY-1035/veh), FGFR1OP (ProbeSet 11751329_s_at) / Fold change (Aza/veh), VPS36 (ProbeSet 11739960_a_at) / Fold change (ACY-1035/veh), VPS36 (ProbeSet 11739960_a_at) / RFU SYPL1 (11715823_x_at) / Fold change /veh SYPL1 (11715823_x_at) / RFU IGFBP7 (11715501_s_at) / Fold change /veh IGFBP7 (11715501_s_at) / RFU REEP3 (11722064_at) / Fold change /veh REEP3 (11722064_at) / RFU IGLL1 (11728026_x_at) / Fold change /veh IGLL1 (11728026_x_at): dose or concentration left out as unconfirmed
Details: MV-4-11 cells, 48 hours

## Nc1ccc(-c2cccs2)cc1NC(=O)c1ccc2c(c1)cc(C1CC1)n2CCN1CCOCC1 [ACY-1035]
  Fold change /veh A4GNT (11735810_at): 1.01
